In paper PMC3810962 (Cancer research, 2012):
Each block holds one compound with its values, some of them ahead of it.

Key:
[1] = biological target: T1, ROCK2 (Homo sapiens, UniProt O75116); assay: ProfilerPro kinase panel, % inhibition at […]; format: biochemical; conditions: 0.2 µM
[2] = biological target: PKA (Homo sapiens, UniProt P17612); assay: biochemical; conditions: read-out: % inhibition
[3] = biological target: T2, PKG1b (Homo sapiens, UniProt Q13976); assay: biochemical; conditions: read-out: % inhibition
T2 sequence (Q13976 1-671): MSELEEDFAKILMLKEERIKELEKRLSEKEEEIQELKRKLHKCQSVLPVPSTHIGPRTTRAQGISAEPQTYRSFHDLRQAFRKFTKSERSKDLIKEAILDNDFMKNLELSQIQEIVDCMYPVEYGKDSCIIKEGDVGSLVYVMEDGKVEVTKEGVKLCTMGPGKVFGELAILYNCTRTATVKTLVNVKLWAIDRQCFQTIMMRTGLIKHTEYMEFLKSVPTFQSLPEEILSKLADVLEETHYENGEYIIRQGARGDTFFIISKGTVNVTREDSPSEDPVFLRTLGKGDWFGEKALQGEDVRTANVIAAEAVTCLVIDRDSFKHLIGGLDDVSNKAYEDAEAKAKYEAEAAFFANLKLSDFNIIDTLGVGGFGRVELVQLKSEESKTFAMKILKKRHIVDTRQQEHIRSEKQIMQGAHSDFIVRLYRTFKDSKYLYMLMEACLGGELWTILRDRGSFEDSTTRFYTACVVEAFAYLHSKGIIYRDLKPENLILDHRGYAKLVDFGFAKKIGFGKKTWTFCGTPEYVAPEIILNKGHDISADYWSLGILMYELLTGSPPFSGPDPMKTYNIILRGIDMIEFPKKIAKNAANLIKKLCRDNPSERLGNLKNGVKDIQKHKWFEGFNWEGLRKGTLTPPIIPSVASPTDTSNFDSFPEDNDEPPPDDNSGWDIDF

[4] = biological target: RSK1 (Homo sapiens, UniProt Q15418); assay: biochemical; conditions: read-out: % inhibition
Chain of RSK1 (Q15418 whole entry): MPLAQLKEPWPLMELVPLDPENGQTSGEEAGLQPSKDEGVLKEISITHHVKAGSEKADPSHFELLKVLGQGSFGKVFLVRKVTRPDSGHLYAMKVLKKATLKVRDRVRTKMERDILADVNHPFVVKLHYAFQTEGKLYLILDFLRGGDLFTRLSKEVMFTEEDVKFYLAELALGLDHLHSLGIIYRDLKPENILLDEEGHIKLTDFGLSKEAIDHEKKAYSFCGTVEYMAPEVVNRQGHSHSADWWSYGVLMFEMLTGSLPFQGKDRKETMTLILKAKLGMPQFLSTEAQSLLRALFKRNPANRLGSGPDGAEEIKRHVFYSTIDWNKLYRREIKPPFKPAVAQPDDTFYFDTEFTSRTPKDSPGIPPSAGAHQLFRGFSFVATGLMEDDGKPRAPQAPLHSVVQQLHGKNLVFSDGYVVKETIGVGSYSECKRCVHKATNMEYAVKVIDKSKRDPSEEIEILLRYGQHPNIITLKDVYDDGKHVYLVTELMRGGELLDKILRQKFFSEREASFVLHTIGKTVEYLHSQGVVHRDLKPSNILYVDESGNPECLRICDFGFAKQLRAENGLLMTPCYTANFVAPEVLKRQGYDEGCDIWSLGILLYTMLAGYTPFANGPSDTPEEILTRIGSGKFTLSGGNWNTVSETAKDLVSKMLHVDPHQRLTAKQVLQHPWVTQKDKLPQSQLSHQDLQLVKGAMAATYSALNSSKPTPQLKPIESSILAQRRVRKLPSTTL

[5] = biological target: RSK3 (Homo sapiens, UniProt Q15349); assay: biochemical; conditions: read-out: % inhibition
[6] = biological target: T3, PRKX (Homo sapiens, UniProt P51817); assay: biochemical; conditions: read-out: % inhibition
T3 sequence (P51817 1-358): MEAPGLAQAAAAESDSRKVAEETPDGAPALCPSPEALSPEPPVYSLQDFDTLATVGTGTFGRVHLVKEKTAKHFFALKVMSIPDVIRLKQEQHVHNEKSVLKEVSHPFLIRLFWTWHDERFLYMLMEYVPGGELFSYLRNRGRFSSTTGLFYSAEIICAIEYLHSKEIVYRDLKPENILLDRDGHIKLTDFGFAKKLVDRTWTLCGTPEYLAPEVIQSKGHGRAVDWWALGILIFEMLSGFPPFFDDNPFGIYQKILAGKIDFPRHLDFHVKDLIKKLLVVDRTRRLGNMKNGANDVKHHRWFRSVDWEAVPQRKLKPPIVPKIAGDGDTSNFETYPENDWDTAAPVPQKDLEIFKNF

[7] = biological target: RSK2 (Homo sapiens, UniProt P51812); assay: biochemical; conditions: read-out: % inhibition
[8] = biological target: T4, STK10 (Homo sapiens, UniProt O94804); assay: biochemical; conditions: read-out: % inhibition
T4 sequence (O94804 whole entry): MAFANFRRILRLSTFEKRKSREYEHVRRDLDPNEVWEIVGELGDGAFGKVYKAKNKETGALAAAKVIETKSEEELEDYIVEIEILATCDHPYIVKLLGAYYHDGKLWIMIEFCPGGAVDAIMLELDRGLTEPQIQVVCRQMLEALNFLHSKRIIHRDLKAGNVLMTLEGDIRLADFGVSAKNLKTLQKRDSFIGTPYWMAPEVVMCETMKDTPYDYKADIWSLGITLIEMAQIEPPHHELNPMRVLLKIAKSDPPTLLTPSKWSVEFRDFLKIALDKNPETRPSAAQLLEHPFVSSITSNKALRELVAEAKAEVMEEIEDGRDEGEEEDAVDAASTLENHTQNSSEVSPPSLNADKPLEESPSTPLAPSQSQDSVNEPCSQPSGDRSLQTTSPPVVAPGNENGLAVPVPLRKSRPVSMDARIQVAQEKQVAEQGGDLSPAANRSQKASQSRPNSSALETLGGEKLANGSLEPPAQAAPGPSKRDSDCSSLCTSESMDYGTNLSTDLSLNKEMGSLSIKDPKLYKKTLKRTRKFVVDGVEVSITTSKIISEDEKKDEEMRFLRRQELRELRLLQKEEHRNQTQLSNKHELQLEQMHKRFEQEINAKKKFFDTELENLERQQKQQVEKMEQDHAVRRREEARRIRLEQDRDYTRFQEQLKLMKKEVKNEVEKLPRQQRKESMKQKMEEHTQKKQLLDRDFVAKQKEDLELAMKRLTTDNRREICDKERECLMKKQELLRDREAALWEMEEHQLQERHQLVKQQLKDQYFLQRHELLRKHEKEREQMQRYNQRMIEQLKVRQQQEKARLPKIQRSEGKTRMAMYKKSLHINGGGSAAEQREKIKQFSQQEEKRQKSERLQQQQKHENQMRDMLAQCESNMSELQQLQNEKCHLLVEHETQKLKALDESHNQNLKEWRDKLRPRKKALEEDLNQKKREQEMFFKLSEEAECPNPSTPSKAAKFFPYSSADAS

[9] = biological target: T5, MST1 (Homo sapiens, UniProt Q13043); assay: biochemical; conditions: read-out: % inhibition
T5 sequence (Q13043 1-487): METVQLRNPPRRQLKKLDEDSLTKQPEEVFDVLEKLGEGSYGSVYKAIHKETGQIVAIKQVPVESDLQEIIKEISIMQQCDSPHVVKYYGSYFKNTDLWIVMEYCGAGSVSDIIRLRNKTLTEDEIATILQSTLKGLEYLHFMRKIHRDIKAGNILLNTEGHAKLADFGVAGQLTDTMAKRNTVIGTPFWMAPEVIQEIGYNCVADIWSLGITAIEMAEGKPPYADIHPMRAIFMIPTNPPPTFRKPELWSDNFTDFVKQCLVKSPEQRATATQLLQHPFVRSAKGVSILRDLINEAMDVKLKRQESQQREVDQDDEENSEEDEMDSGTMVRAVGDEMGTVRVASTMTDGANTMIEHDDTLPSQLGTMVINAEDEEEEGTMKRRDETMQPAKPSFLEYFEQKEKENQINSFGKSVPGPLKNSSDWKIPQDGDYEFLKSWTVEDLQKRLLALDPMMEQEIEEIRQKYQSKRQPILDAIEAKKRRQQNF

[10] = biological target: PKCbeta1 (Homo sapiens, UniProt P05771); assay: biochemical; conditions: read-out: % inhibition
[11] = biological target: T6, ROCK1 (Homo sapiens, UniProt Q13464); assay: biochemical; conditions: read-out: % inhibition
[12] = biological target: PKCdelta (Homo sapiens, UniProt Q05655); assay: biochemical; conditions: read-out: % inhibition
[13] = biological target: T7, PKG (Homo sapiens, UniProt Q13976); assay: biochemical; conditions: read-out: % inhibition
T7 sequence (Q13976 1-671): T2 sequence (Q13976 1-671)

[14] = biological target: MNK1 (Homo sapiens, UniProt Q9BUB5); assay: biochemical; conditions: read-out: % inhibition
Chain of MNK1 (Q9BUB5 whole entry): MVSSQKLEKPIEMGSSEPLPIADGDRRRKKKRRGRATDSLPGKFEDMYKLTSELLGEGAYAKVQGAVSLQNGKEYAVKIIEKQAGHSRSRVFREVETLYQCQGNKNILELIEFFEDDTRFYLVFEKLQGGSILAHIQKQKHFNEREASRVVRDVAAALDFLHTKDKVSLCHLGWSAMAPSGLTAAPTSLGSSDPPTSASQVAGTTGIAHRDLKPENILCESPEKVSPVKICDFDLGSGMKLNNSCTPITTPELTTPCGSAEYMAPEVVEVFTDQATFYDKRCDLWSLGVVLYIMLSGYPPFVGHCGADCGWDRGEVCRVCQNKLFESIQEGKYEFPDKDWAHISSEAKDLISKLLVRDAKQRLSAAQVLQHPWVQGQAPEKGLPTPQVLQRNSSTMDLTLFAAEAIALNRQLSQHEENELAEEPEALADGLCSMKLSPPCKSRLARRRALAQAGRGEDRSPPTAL

[15] = biological target: T8, PKCtheta (Homo sapiens, UniProt Q04759); assay: biochemical; conditions: read-out: % inhibition
[16] = biological target: T1, ROCK2; assay: biochemical; conditions: read-out: % inhibition
[17] = biological target: T9, PKCepsilon (Homo sapiens, UniProt Q02156); assay: biochemical; conditions: read-out: % inhibition
T9 sequence (Q02156 1-737): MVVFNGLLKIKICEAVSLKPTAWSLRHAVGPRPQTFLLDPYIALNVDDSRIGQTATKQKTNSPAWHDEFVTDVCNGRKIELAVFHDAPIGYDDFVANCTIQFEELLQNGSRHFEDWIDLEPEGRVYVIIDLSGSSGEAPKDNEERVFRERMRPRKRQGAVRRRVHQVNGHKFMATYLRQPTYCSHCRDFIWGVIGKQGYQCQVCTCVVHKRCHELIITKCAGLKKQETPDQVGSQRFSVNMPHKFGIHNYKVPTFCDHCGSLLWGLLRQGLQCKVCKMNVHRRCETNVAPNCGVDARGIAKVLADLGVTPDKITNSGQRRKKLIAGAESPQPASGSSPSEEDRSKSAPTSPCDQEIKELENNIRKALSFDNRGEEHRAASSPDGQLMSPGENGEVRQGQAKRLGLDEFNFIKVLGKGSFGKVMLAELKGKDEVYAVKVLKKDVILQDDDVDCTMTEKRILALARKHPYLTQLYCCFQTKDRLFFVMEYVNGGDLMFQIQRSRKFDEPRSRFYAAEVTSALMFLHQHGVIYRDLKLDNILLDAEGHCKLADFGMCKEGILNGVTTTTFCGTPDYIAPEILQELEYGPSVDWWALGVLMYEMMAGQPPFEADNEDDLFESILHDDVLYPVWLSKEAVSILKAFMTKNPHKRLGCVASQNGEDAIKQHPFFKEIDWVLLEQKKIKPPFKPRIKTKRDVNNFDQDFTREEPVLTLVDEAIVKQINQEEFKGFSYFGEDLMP

[18] = biological target: T10, ARK5 (Homo sapiens, UniProt O60285); assay: biochemical; conditions: read-out: % inhibition
T10 sequence (O60285 1-661): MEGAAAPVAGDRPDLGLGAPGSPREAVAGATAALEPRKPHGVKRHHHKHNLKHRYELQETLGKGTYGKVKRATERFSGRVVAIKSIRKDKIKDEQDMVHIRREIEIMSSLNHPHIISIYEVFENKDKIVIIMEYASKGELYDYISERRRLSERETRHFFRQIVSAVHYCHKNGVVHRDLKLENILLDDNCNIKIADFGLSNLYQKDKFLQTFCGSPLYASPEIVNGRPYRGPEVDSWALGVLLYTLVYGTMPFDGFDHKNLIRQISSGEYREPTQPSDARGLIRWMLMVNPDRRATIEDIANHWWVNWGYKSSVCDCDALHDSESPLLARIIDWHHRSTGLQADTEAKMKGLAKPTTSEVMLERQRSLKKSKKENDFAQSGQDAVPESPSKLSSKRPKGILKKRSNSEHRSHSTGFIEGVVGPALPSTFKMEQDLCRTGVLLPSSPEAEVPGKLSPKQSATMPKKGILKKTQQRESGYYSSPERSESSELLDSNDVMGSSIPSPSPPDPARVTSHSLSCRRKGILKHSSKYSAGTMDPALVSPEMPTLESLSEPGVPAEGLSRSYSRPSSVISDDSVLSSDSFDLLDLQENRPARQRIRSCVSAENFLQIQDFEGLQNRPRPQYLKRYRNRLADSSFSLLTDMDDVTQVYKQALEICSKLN

[19] = biological target: T11, IKKbeta (Homo sapiens, UniProt O14920); assay: biochemical; conditions: read-out: % inhibition
T11 sequence (O14920 1-756): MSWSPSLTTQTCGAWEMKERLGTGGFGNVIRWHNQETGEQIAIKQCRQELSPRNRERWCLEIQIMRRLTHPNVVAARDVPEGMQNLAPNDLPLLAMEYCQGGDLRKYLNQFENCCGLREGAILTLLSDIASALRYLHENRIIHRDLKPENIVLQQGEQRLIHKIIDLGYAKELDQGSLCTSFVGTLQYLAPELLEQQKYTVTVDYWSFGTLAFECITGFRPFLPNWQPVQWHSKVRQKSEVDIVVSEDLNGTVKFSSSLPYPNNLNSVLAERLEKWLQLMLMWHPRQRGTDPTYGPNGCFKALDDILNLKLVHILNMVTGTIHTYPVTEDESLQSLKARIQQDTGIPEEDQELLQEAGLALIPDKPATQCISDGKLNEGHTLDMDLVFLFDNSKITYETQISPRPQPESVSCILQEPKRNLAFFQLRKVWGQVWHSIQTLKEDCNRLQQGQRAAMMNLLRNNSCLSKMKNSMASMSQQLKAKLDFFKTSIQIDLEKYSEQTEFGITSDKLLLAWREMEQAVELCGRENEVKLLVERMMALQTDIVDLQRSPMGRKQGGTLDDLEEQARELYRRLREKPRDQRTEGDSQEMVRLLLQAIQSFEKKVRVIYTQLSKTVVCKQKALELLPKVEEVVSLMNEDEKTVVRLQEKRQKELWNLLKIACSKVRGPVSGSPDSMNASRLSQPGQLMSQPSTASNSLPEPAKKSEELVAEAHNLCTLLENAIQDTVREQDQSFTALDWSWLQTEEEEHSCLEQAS

[20] = biological target: T6, ROCK1; assay: ProfilerPro kinase panel, % inhibition at […]; format: biochemical; conditions: 0.2 µM
Target sequence in this assay (Q13464 2-1354): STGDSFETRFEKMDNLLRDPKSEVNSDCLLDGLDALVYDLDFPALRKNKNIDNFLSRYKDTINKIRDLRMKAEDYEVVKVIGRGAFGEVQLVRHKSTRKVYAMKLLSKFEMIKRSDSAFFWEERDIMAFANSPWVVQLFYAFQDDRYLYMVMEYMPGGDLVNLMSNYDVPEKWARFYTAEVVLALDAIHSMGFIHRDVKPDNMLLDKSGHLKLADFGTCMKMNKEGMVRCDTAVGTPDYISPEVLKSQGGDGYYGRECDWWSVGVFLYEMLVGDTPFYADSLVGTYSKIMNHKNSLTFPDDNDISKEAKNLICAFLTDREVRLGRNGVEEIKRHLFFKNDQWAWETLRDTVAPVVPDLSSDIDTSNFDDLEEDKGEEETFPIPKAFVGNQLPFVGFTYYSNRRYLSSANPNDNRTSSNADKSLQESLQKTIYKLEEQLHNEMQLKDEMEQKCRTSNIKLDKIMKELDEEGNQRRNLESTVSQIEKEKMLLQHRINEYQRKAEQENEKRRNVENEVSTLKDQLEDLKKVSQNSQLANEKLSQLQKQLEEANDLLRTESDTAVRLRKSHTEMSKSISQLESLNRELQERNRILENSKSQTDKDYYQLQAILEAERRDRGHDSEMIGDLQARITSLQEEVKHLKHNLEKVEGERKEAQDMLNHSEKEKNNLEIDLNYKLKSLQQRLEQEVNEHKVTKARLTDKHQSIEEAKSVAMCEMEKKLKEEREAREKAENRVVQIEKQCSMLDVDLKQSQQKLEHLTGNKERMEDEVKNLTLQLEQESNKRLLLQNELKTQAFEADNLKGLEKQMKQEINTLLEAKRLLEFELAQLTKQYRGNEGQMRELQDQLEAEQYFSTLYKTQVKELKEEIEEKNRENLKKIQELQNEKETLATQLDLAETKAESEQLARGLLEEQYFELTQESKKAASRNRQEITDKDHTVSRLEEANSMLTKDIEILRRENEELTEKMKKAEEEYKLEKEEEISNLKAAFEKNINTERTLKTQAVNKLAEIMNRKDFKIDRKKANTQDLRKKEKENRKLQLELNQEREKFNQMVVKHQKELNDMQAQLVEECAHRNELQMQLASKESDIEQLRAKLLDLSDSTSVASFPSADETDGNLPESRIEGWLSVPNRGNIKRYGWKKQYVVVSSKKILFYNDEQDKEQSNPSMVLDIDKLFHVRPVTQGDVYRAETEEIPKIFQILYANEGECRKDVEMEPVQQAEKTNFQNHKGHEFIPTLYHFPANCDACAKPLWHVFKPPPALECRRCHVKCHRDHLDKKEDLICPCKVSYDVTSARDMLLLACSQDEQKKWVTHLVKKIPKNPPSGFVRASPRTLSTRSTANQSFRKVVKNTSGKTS

[21] = biological target: T4, STK10; assay: ProfilerPro kinase panel, % inhibition at […]; format: biochemical; conditions: 0.2 µM
[22] = biological target: T8, PKCtheta; assay: ProfilerPro kinase panel, % inhibition at […]; format: biochemical; conditions: read-out: Compound / Y27632
[23] = biological target: T4, STK10; assay: ProfilerPro kinase panel, % inhibition at […]; format: biochemical; conditions: read-out: Compound / Y27632
[24] = biological target: T6, ROCK1; assay: biochemical; conditions: read-out: Compound / OXA-06
Target sequence in this assay (Q13464 2-1354): as above

[25] = biological target: T1, ROCK2; assay: ProfilerPro kinase panel, % inhibition at […]; format: biochemical; conditions: read-out: Compound / OXA-06

T1 sequence (O75116 whole entry): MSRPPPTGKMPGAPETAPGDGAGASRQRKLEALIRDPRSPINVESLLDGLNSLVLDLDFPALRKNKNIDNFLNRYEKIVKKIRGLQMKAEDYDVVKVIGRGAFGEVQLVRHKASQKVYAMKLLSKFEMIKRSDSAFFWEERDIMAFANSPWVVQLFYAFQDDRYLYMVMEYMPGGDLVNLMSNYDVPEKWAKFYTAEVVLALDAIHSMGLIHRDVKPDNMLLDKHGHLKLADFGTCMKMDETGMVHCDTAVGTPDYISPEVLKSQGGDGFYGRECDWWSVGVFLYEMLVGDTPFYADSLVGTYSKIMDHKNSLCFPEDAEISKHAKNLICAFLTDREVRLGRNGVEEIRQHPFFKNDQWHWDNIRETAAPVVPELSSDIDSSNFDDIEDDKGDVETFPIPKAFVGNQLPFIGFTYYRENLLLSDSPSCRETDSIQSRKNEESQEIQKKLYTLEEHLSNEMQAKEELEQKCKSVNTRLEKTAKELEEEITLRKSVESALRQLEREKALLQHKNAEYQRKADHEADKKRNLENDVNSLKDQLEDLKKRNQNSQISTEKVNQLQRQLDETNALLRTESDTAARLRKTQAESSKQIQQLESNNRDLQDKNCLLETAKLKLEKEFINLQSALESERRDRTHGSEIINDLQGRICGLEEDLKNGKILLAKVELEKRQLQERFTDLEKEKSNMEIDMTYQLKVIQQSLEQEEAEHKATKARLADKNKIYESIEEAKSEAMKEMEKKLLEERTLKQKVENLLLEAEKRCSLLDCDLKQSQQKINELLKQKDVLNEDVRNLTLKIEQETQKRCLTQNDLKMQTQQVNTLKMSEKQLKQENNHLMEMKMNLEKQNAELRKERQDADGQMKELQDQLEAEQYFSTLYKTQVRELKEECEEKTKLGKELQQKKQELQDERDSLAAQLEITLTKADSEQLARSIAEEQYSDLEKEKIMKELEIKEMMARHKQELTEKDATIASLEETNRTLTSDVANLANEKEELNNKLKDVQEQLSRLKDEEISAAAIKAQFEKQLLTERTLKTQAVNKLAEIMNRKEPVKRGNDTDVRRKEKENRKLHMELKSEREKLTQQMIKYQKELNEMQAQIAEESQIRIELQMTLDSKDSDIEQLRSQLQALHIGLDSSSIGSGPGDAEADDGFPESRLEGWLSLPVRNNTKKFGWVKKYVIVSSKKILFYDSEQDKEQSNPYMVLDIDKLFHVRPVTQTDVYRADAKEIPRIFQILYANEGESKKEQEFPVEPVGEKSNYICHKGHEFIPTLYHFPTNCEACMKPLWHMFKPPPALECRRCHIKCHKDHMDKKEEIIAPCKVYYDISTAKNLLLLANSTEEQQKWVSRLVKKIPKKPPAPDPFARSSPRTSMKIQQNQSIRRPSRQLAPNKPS

Compound / OXA-06 [1]: 95
inhibition at 0.2 µM [2]: 98%
inhibition at 0.2 µM [3]: 73%
inhibition at 0.2 µM [4]: 6%
inhibition at 0.2 µM [5]: 10%
inhibition at 0.2 µM [6]: 56%
inhibition at 0.2 µM [7]: 17%
inhibition at 0.2 µM [8]: 58%
inhibition at 0.2 µM [9]: 19%
inhibition at 0.2 µM [10]: -3%
inhibition at 0.2 µM [11]: 94%
inhibition at 0.2 µM [12]: 36%
inhibition at 0.2 µM [13]: 72%
inhibition at 0.2 µM [14]: 16%
inhibition at 0.2 µM [15]: 12%
inhibition at 0.2 µM [16]: 95%
inhibition at 0.2 µM [17]: 26%
inhibition at 0.2 µM [18]: 56%
inhibition at 0.2 µM [19]: 56%
Compound / OXA-06 [20]: 94
Compound / OXA-06 [21]: 58
SMILES: Fc1ccccc1CNCc1ccc(-c2ccnc3[nH]ccc23)cc1 [OXA-06]

SMILES: C[C@@H](N)[C@H]1CC[C@H](C(=O)Nc2ccncc2)CC1 [Y-27632]
inhibition at 10 µM [22]: 82%
inhibition at 10 µM [2]: 29%
inhibition at 10 µM [3]: 68%
inhibition at 10 µM [4]: 51%
inhibition at 10 µM [5]: 82%
inhibition at 10 µM [6]: 78%
inhibition at 10 µM [9]: 59%
inhibition at 10 µM [10]: 52%
inhibition at 10 µM [12]: 55%
inhibition at 10 µM [13]: 64%
inhibition at 10 µM [14]: 78%
inhibition at 10 µM [18]: 1%
inhibition at 10 µM [19]: 82%
inhibition at 10 µM [23]: 87%
inhibition at 10 µM [24]: 94%
inhibition at 10 µM [25]: 95%
